Tested on: Salinispora tropica NPS021184
Test: Production of Salinosporamide A and analogs in shake flask or tube culture; titers by HPLC of EtOAc extract
Conditions: for % Increase (+) or % decrease (−) of maximum titer: Ex.1 Table 1; for % Increase (+) or % decrease (−) of max titer: Ex.1 Table 2; for % increase/decrease of titer / relative % change (of % relative to Sal A): Ex.2 Table 3; for % Increase (+) or % decrease (−) of average max titer: Ex.2 Table 4; for relative decrease in production (relative to Salinosporamide A): 208 μg/L CoCl2·6H2O in seed medium, 52 μg/L in production medium vs no cobalt in seed
Experimental: Seed cultures were prepared by inoculating frozen stock of Salinispora tropica NPS021184 into seed medium.
(§1) The first seed cultures (either 10 mL medium in a 50-mL tube or 100 mL medium in a 500-mL Erlenmeyer flask) were incubated for 3 to 4 days before inoculating into the second seed media with the same composition as the first seed cultures. The second seed cultures (100 mL medium in a 500-mL Erlenmeyer flask) were incubated for two days before inoculating into the production medium (100 mL medium in a 500-mL Erlenmeyer flask).
The chemically defined salt formulation included: […]
(§2) 3.5 mL of the fermentation culture was mixed with equal volume of EtOAc in an extraction tube to extract the various metabolites from the production culture. The mixture was shaken on a shaker for one hr. An aliquot of the extract (1 mL) was removed and dried under a stream of nitrogen. The dried extract was stored at −20° C. freezer before HPLC analysis. The dried extract was resuspended in 320 μL DMSO and injected into HPLC using the 00TF14 method for analysis.
The production of Salinosporamide A, NPI-0047 and NPI-2065 was monitored by Agilent HP1100 HPLC using an ACE C-18 reversed-phase column (4.6×150 mm), and solvent system consisting of water (0.01% TFA) as solvent A and acetonitrile (0.01% TFA) as solvent B. The elution was started at 100% solvent A for 1 min, 100% solvent A to 35% solvent A gradient in 7 min, held at 35% solvent A for 11 min, 35% solvent A to 100% solvent B in 8 min and held at 100% solvent B for 9 min at a flow rate of 1.5 mL/min with the detector wavelength set at 210 nm and column temperature 35° C.
The first seed cultures (either 10 mL medium in a 50-mL tube or 100 ml medium in a 500-ml Erlenmeyer flask) were incubated for 3 to 4 days before inoculating into the second seed media with the same composition as the first seed cultures. The second seed cultures (100 mL medium in a 500-mL Erlenmeyer flask) were incubated for two days before inoculating into the production medium (100 mL medium in a 500-mL Erlenmeyer flask).
as §1, with “in a 50-ml tube or” for “in a 50-mL tube or”, “inoculating into production medium” for “inoculating into the production medium”
as §2, with “shaken” for “shaken on a shaker”, “1” for “one”, “[…]” for “μL”, “TFS7” for “00TF14”
The production of Salinosporamide A, NPI-0047 and NPI-2065 was monitored by Agilent HP1100 HPLC using an ACE C-18 reversed-phase column (4.6×150 mm), and isocratic solvent system consisting of 67% water (0.01% TFA) and 33% acetonitrile (0.01% TFA). The flow rate was 1.5 mL/min for 15 min with the detector wavelength set at 210 nm and column temperature 35° C.
3.5 mL of the fermentation culture was mixed with equal volume of EtOAc in an extraction tube to extract the various metabolites from the production culture. The mixture was shaken on the shaker for 1 hr. An aliquot of the extract (1 mL) was removed and dried under a stream of nitrogen. The dried extract was stored at −20° C. freezer before HPLC analysis. The dried extract was resuspended in 320 μL DMSO and injected into HPLC using the TFS7 method for analysis. […]

[1] = 104 μg/L CoCl2·6H2O in production medium vs no addition
[2] = 1.04 mg/L CoCl2·6H2O in production medium vs no addition
[3] = 10.4 mg/L CoCl2·6H2O in production medium vs no addition
[4] = 2.6 μg/L CoCl2·6H2O in production medium vs control
[5] = 5.2 μg/L CoCl2·6H2O in production medium vs control
[6] = 6.5 μg/L CoCl2·6H2O in production medium vs control
[7] = 13 μg/L CoCl2·6H2O in production medium vs control
[8] = 26 μg/L CoCl2·6H2O in production medium vs control
[9] = 52 μg/L CoCl2·6H2O in production medium vs control
[10] = 104 μg/L CoCl2·6H2O in production medium vs control
[11] = 208 μg/L CoCl2·6H2O in production medium vs control
[12] = 416 μg/L CoCl2·6H2O in production medium vs control
[13] = seed CoCl2·6H2O 0 μg/L (reference)
[14] = seed CoCl2·6H2O 2.6 μg/L vs 0 μg/L
[15] = seed CoCl2·6H2O 5.2 μg/L vs 0 μg/L
[16] = seed CoCl2·6H2O 13 μg/L vs 0 μg/L
[17] = seed CoCl2·6H2O 26 μg/L vs 0 μg/L
[18] = seed CoCl2·6H2O 52 μg/L vs 0 μg/L
[19] = seed CoCl2·6H2O 104 μg/L vs 0 μg/L
[20] = seed CoCl2·6H2O 208 μg/L vs 0 μg/L
[21] = seed CoCl2·6H2O 416 μg/L vs 0 μg/L
[22] = CoCl2·6H2O seed 0 / production 52 μg/L vs no cobalt
[23] = CoCl2·6H2O seed 208 μg/L / production 52 μg/L vs no cobalt
[24] = Ex.2, cobalt in both seed (208 μg/L) and production (52 μg/L) media vs media without cobalt
[25] = Ex.2, cobalt in seed and production media vs cobalt in production medium only

C[C@@]12OC(=O)[C@]1([C@@H](O)[C@@H]1C=CCCC1)NC(=O)[C@H]2CCCl [NPI-2065]
% Increase (+) or % decrease (−) of maximum titer [1]: −21.0% | % Increase (+) or % decrease (−) of maximum titer [2]: −12.2% | % Increase (+) or % decrease (−) of maximum titer [3]: −30.8% | % Increase (+) or % decrease (−) of max titer [4]: −7.6% | % Increase (+) or % decrease (−) of max titer [5]: −1.5% | % Increase (+) or % decrease (−) of max titer [6]: −6.1% | % Increase (+) or % decrease (−) of max titer [7]: −1.5% | % Increase (+) or % decrease (−) of max titer [8]: +3.0% | % Increase (+) or % decrease (−) of max titer [9]: −4.6% | % Increase (+) or % decrease (−) of max titer [10]: −1.5% | % Increase (+) or % decrease (−) of max titer [11]: −6.1% | % Increase (+) or % decrease (−) of max titer [12]: −15.2% | reduction of concentration in the fermentation (Ex.14, vitamin B12 in Instant Ocean based medium): 30% | reduction of concentration in the fermentation (Ex.15, Vitamin B12 or CoCl2·6H2O at 0.22 μM in salt formulation based medium): no reduction | maximum inhibition of production (Ex.1, 416 μg/L, highest cobalt concentration tested in production medium): 15% | inhibition of production (Ex.1, 10.4 mg/L CoCl2·6H2O in production medium vs none): 30.8% | % increase/decrease of titer [13]: 0.0% | relative % change (of % relative to Sal A) [13]: 0.0% | % increase/decrease of titer [14]: 1.7% | relative % change (of % relative to Sal A) [14]: 0.0% | % increase/decrease of titer [15]: 4.2% | relative % change (of % relative to Sal A) [15]: −0.5% | % increase/decrease of titer [16]: 5.9% | relative % change (of % relative to Sal A) [16]: 3.5% | % increase/decrease of titer [17]: 23.1% | relative % change (of % relative to Sal A) [17]: 3.5% | % increase/decrease of titer [18]: 17.7% | relative % change (of % relative to Sal A) [18]: 7.9% | % increase/decrease of titer [19]: 15.5% | relative % change (of % relative to Sal A) [19]: −0.5% | % increase/decrease of titer [20]: 19.7% | relative % change (of % relative to Sal A) [20]: −1.4% | % increase/decrease of titer [21]: 6.2% | relative % change (of % relative to Sal A) [21]: −3% | % Increase (+) or % decrease (−) of average max titer [22]: −37.2% | % Increase (+) or % decrease (−) of average max titer [23]: −44.9% | relative decrease in production (relative to Salinosporamide A) (Ex.2): 1.4% | reduction of production [24]: 44.9% | reduction of production [25]: 12.2%

C[C@@]12OC(=O)[C@]1([C@@H](O)[C@@H]1C=CCCC1)NC(=O)[C@@H]2CCCl [Salinosporamide A]
% Increase (+) or % decrease (−) of maximum titer [1]: 1.5% | % Increase (+) or % decrease (−) of maximum titer [2]: 2.2% | % Increase (+) or % decrease (−) of maximum titer [3]: −1.4% | % Increase (+) or % decrease (−) of max titer [4]: +1.1% | % Increase (+) or % decrease (−) of max titer [5]: −8.9% | % Increase (+) or % decrease (−) of max titer [6]: +1.2% | % Increase (+) or % decrease (−) of max titer [7]: −0.3% | % Increase (+) or % decrease (−) of max titer [8]: −4.0% | % Increase (+) or % decrease (−) of max titer [9]: −4.5% | % Increase (+) or % decrease (−) of max titer [10]: −3.0% | % Increase (+) or % decrease (−) of max titer [11]: +0.2% | % Increase (+) or % decrease (−) of max titer [12]: −8.5% | maximum production as % of the high sodium medium (Ex.11, low sodium medium (9.3 mM sodium, SHY.KCD) vs high sodium medium (413 mM sodium, SHY.B4C)): about 75% | % increase/decrease of titer [13]: 0.0% | % increase/decrease of titer [14]: 1.7% | % increase/decrease of titer [15]: 4.7% | % increase/decrease of titer [16]: 2.5% | % increase/decrease of titer [17]: 20.3% | % increase/decrease of titer [18]: 10.7% | % increase/decrease of titer [19]: 15.9% | % increase/decrease of titer [20]: 20.8% | % increase/decrease of titer [21]: 9.2% | % Increase (+) or % decrease (−) of average max titer [22]: +10.1% | % Increase (+) or % decrease (−) of average max titer [23]: 33.9% | % Increase (+) or % decrease (−) of average max titer (CoCl2·6H2O seed 208 μg/L / production 52 μg/L vs no cobalt, listed as SALINOSPORAMIDE A): +33.9% | concentration as % of the saline fermentation condition (Ex.23, low chloride medium (LoCl.PD) vs saline medium): about 35% | increase of production [25]: 21.6%

CC[C@H]1C(=O)N[C@@]2([C@@H](O)[C@@H]3C=CCCC3)C(=O)O[C@@]12C [NPI-0047, Salinosporamide B]
% Increase (+) or % decrease (−) of maximum titer [1]: −65.9% | % Increase (+) or % decrease (−) of maximum titer [2]: −67.4% | % Increase (+) or % decrease (−) of maximum titer [3]: −71.3% | % Increase (+) or % decrease (−) of max titer [4]: −18.6% | % Increase (+) or % decrease (−) of max titer [5]: −41.2% | % Increase (+) or % decrease (−) of max titer [6]: −38.2% | % Increase (+) or % decrease (−) of max titer [7]: −52.0% | % Increase (+) or % decrease (−) of max titer [8]: −63.7% | % Increase (+) or % decrease (−) of max titer [9]: −69.6% | % Increase (+) or % decrease (−) of max titer [10]: −65.7% | % Increase (+) or % decrease (−) of max titer [11]: −69.6% | % Increase (+) or % decrease (−) of max titer [12]: −73.5% | reduction of concentration in the fermentation (Ex.14, 0.22 μM vitamin B12 added to production medium (Instant Ocean based)): 74% | reduction of production (Ex.1, 52 μg/L cobalt concentration in production medium vs control): 69.6% | decrease in production (Ex.1, 104 μg/L CoCl2·6H2O added to production medium vs none): 66% | % increase/decrease of titer [13]: 0.0% | relative % change (of % relative to Sal A) [13]: 0.0% | % increase/decrease of titer [14]: 5.9% | relative % change (of % relative to Sal A) [14]: 4.2% | % increase/decrease of titer [15]: 2.0% | relative % change (of % relative to Sal A) [15]: −2.7% | % increase/decrease of titer [16]: −17.2% | relative % change (of % relative to Sal A) [16]: −20.2% | % increase/decrease of titer [17]: −2.3% | relative % change (of % relative to Sal A) [17]: −28.4% | % increase/decrease of titer [18]: −21.6% | relative % change (of % relative to Sal A) [18]: −36.1% | % increase/decrease of titer [19]: −9.2% | relative % change (of % relative to Sal A) [19]: −29.9% | % increase/decrease of titer [20]: −11.9% | relative % change (of % relative to Sal A) [20]: −41.3% | % increase/decrease of titer [21]: −10.4% | relative % change (of % relative to Sal A) [21]: −21.5% | % Increase (+) or % decrease (−) of average max titer [22]: −71.7% | % Increase (+) or % decrease (−) of average max titer [23]: −78.0% | reduction of production by cobalt (Ex.21, NPS21184, CoCl2·6H2O 208 μg/L seed, 52 μg/L production vs no cobalt): 91% | relative decrease in production (relative to Salinosporamide A) (Ex.2): 41.3% | reduction of production [24]: 78.0% | reduction of production [25]: 22.2%

From patent US10011814B2, “Salt formulations for the fermentation of marine microorganisms” (Triphase Research and Development I Corp., priority 2006, dated 2018)
